Data as given in patent publication US20090239951A1, “Crystalline Material” (priority 2006, published 2009).

How the values were obtained:
Type in all cases: physicochemical
[1] = Conversion of crystal form on being dissolved or slurried in solvents
[2] = Hygroscopicity versus relative humidity
[3] = Stability of Form N-5 slurries in ethanol:water mixtures; conditions: ethanol:water mixtures (1:1, 1:1.3 and 1:2) at 5, 25 and 30° C. after 1 h, 48 h and 5 days; confirmed by DSC and FTIR
Experimental: The stability of N-5 slurries in ethanol:water mixtures (1:1, 1:1.3 and 1:2) at 5, 25 and 30° C. was determined after 1 h, 48 h and 5 days. […] DSC and FTIR confirmed this.

[4] = Heat stability of crystalline form; conditions: solid crystalline form
[5] = Stability of the crystal form (general statement)

stability when slurried in the presence of an alcohol ([1]; slurried in the presence of an alcohol, after very long periods conversion into Form N-6 may occur) | non-hygroscopic up to a relative humidity of [2] | stability of slurries (transformation to other form) [3] | heat stable up to [4] | form conversion on being dissolved or slurried ([1]; common solvents: alcohols such as methanol, ethanol or isopropanol, nitromethane or nitroethane, alcohol/water mixtures) | becoming hygroscopic at a relative humidity of [2] | stability of crystal form [5] | SMILES
stable for a number of days | 95% | did not transform to any other form | at least 170 °C | – | – | – | CC(C)c1cc(Oc2c(Br)cc(NC(=O)CC(=O)O)cc2Br)ccc1O [Form N-5, 3-[[3,5-dibromo-4-[4-hydroxy-3-(1-methylethyl)-phenoxy]-phenyl]-amino]-3-oxopropanoic acid]
– | – | – | around 125 °C | converts into Form N-5 and/or Form N-6 | 50% | unstable | CC(C)c1cc(Oc2c(Br)cc(NC(=O)CC(=O)O)cc2Br)ccc1O [Form N-1, 3-[[3,5-dibromo-4-[4-hydroxy-3-(1-methylethyl)-phenoxy]-phenyl]-amino]-3-oxopropanoic acid, reference compound]
– | 95% | – | at least 170 °C | – | – | – | CC(C)c1cc(Oc2c(Br)cc(NC(=O)CC(=O)O)cc2Br)ccc1O [Form N-6, 3-[[3,5-dibromo-4-[4-hydroxy-3-(1-methylethyl)-phenoxy]-phenyl]-amino]-3-oxopropanoic acid]
